Measured values from article PMC11449324, “Functional comparison of human and murine equilibrative nucleobase transporter 1” (PLOS ONE, 2024).
Read-outs that look alike come from different tables or passages of the source.

What was measured:
[1] = tested on: HEK293-EV cells (ENBT1-deficient); test: Radiolabelled substrate uptake in empty vector HEK293-EV cells; type: cell-based, human; conditions: 2 seconds
Description: This is the minimum incubation time achievable with this oil-stop technique, and it was found in previous studies that these short incubation times were necessary to assess the kinetics of this transporter. The aqueous layer was removed via vacuum-powered aspirator, and the tube was washed with 1 mL of NMG buffer prior to removal of the oil layer. […] In transfected-HEK293 cell lines, total uptake was defined as uptake of radiolabeled substrate in cells overexpressing recombinant hENBT1 or mENBT1. […] This non-mediated component would include passive diffusion into the cells and radiolabelled substrate remaining extracellularly in the digested cell pellet after processing the samples. […] ENBT1-mediated uptake was calculated as total uptake minus the non-mediated uptake. Cell water volume (μL) was estimated by incubating cells with ^3H2O for 3 minutes, centrifuging the cells through the oil layer at ~10,000 g, assessing 100 μL of the supernatant for radioactive content, and then processing as described above. Total cellular water volume was determined from the ratio of the decays per minute of the cell pellet, to the decays per minute of the supernatant, allowing for inter-experimental normalization via calculation of picomoles of substrate accumulated per microliter of cell-associated water.

[2] = target: T1, hENBT1 (Homo sapiens, UniProt Q8NBI5); test: Inhibition of ENBT1-mediated substrate uptake in HEK293-hSLC43A3 cells; type: cell-based
T1 construct: Oligonucleotides corresponding to the coding region of SLC43A3 (NM_001278201) or slc43a3 (NM_021398); expressed in transfected cells; HEK293-hSLC43A3
T1 sequence (Q8NBI5 1-491): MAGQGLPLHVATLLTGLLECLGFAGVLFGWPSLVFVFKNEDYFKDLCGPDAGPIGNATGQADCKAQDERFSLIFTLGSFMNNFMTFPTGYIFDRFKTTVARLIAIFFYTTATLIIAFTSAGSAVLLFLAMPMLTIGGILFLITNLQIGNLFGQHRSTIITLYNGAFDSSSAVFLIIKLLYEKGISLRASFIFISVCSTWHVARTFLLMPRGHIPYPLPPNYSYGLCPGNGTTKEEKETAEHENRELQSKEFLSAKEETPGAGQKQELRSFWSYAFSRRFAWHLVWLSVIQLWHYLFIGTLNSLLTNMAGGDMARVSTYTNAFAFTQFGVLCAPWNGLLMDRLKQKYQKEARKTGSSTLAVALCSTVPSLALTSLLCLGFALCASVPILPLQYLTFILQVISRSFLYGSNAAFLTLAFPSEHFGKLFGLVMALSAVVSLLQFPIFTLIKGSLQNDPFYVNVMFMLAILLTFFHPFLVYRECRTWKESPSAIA
Description: Harvested cells were suspended in nominally sodium-free N-methyl-D-glucamine (NMG) buffer (140 mM NMG, 5 mM KCl, 4.2 mM KHCO3, 0.36 mM K2HPO4, 0.44 mM KH2PO4, 0.5 mM MgCl2, 1.3 mM CaCl2, 10 mM HEPES, pH 7.4), to minimize potential contribution of sodium-dependent concentrative nucleoside transporter-mediated uptake. Additionally, cells were incubated for 15 minutes at room temperature with 10 μM dipyridamole (DY), an equilibrative nucleoside transporter (ENT) inhibitor, to block equilibrative nucleoside transporter–mediated uptake. The substrate uptake assay was initiated by adding 250 μL cell suspension to 250 μL [^3H] labeled substrate, layered over 21:4 silicone:mineral oil (200 μL) in 1.5 mL microcentrifuge tubes (conducted at room temperature). The uptake reaction was terminated after 2 seconds by centrifugation of the cells through the oil layer at ~10,000 g. This is the minimum incubation time achievable with this oil-stop technique, and it was found in previous studies that these short incubation times were necessary to assess the kinetics of this transporter. The aqueous layer was removed via vacuum-powered aspirator, and the tube was washed with 1 mL of NMG buffer prior to removal of the oil layer. The resulting cell pellet was digested in 250 μL 1 M NaOH overnight (~16 hours), with 220 μL aliquots of digested cells assessed for radioactive content using standard liquid scintillation counting techniques in a Beckman Coulter LS6500 scintillation system (Brea, CA).
To assess the ability of compounds to inhibit substrate uptake, cells were incubated with the inhibitor for 15 minutes prior to initiating the uptake assay, or exposed to the cells simultaneously with the radiolabelled substrate. […] After subtraction of the non-mediated uptake component, the degree of inhibition was calculated as the ratio of cellular accumulation in the presence of test compound to that measured in its absence (X 100).
Each assay was repeated 5–6 times using independent cell isolations and reagent preparations. In addition, within each assay, there were two or three technical replicates (using the same reagents and cells) that were averaged to obtain a single data point. Nonlinear curves were fitted to data (presented as mean ± SD from the 5–6 independent experiments), and statistical analyses were done using GraphPad Prism 10 software. In all cases, if the P-value determined from a statistical test was less than 0.05, the null hypothesis was rejected and the alternative hypothesis was favoured. Significant differences between groups were assessed using either Student’s t-test or ordinary one- or two-way analysis of variance (ANOVA) followed by a post hoc Šidák multiple comparison test, as appropriate. For influx and cell viability analyses, significant differences in Km and EC50 value, respectively, between the hENBT1 and mENBT1 data sets, were determined by the extra sum-of-squares F test. For inhibition analyses, the Ki values were determined from the IC50 values using the specified substrate concentration [S], based on the Cheng-Prusoff equation Ki = IC50/(1 + [S]/Km) and experimentally obtained Km values.

Compound	uptake of radiolabelled substrate [1]	Ki ([2]; HEK293-hSLC43A3, 30 μM [3H]adenine, 2 seconds, Cheng-Prusoff, read-out: Ki for inhibition of ENBT1-mediated [3H]adenine uptake) [µM]	inhibition of ENBT1-mediated [3H]adenine uptake ([2]; at highest concentration of 6-MP tested (1 mM), HEK293-hSLC43A3)	Ki relative to its Km for the transporter ([2]; hENBT1) [fold]	Ki [2] [µM]	inhibition of ENBT1-mediated [14C]6-MP uptake ([2]; at 1 mM adenine, HEK293-hSLC43A3)
Sc1ncnc2nc[nH]c12 [6-MP, 6-Mercaptopurine]	minimal uptake	5900 ± 700	complete inhibition was not obtained	30		
Nc1ncnc2[nH]cnc12 [adenine, Adenine]	minimal uptake				25 ± 9	near complete inhibition
